Reference: patent US20220145265A1, “IN VITRO EQUINE MODEL SYSTEMS AND THEIR INTEGRATION INTO HORSE-ON-A-CHIP PLATFORM” (University of Kentucky Research Foundation, priority 2020, published 2022)

Legend:
[1] = tested on: cellular esterase(s); experiment: Ciclesonide pro-drug hydrolysis to des-CIC in equine hepatic organoid-derived transwells; assay type: in vitro ADME; conditions: 500 μM Ciclesonide, over time
Description: (§1) FIG. 10A-10E. Identification and quantification of Ciclesonide metabolites produced by equine airway and hepatic organoid-derived tissue systems. FIG. 10A includes the structure of Ciclesonide, which is a pro-drug that is metabolized in the lungs to the active form, desisobutyryl-Ciclesonide (des-CIC). FIG. 10B includes MS spectra showing representative fragmentation pattern of kinetic des-CIC conversion from CIC hydrolysis generated by equine bronchioalveolar organoid-derived transwells treated with pro-drug. FIGS. 10C-10D plot quantification of des-CIC metabolite produced by equine airway organoid-derived transwells treated with 50 μM (FIG. 10C) or 500 μM (FIG. 10D) Ciclesonide as a function of time. FIG. 10E plots quantification of des-CIC metabolite produced by equine hepatic organoid-derived transwells treated with 500 μM Ciclesonide as a function of time. […]
Apical samples were obtained from the transwell upper chamber containing the bronchioalveolar tissue; basolateral samples were obtained from the lower transwell chamber containing untreated medium. FIG. 10E includes the results of quantification of des-CIC metabolite produced by equine hepatic organoid-derived transwells treated with 500 μM Ciclesonide. […]

[2] = tested on: cellular esterase(s); experiment: Ciclesonide pro-drug hydrolysis to des-CIC in equine airway (bronchioalveolar) organoid-derived transwells; assay type: in vitro ADME; conditions: 50 μM or 500 μM Ciclesonide, over time
Description: as §1
FIG. 10B, includes representative fragmentation pattern of kinetic des-CIC conversion from CIC hydrolysis generated by equine bronchioalveolar organoid-derived transwells treated with pro-drug. […] Quantification of des-CIC metabolite produced by equine airway organoid-derived transwells treated with 50 μM (FIG. 10C) or 500 μM (FIG. 10D) Ciclesonide over time. […]

[3] = tested on: CYP3A89
Description: FIG. 5A-51I. Development of an equine intestine-on-a-chip. FIG. 5A: Schematic representation of equine intestine-on-a-chip, including the top view of the Emulate chip (left), and a vertical slice (right) showing the epithelial channel (1, blue), the microvasculature channel (2, pink), and microchannels populated by organoid-derived intestinal epithelial cells (3) and endothelial cells (4), separated by flexible, porous membrane coated by extracellular matrices (5). FIG. 5B: Brightfield image of an equine intestine-chip cultured for 12 days in the presence of fluid flow and stretch (30 μl/h flow, 10% strain, 0.2 Hz). FIG. 5C: High magnification, phase contrast image of the intestinal epithelium channel depicted in b. […] FIG. 5E: Intestinal epithelium height measured in situ over a 400 μm section of the intestine-chip depicted in b. […] FIG. 5G: qPCR analysis of transcripts associated with intestine cell differentiation in organ-chips compared to 3D enteroid culture. (FIG. 5H: Testosterone conversion by epithelial CYP3A89 in equine intestine-chips was monitored by LC-MS/MS. Graph depicts the percent conversion of testosterone to 6-hydroxytestosterone at two concentrations. Scale bar represents 100 μm in panels 5B, 5C, 5D, and 5F. Schematic in 5A adapted and modified from Kasendra et al., eLife 2020.
Finally, studies were performed to evaluate the suitability of intestine chips for drug metabolism and CYP3A89 (CYP3A4 homolog (24)) induction. For these experiments, we inoculated testosterone into the inlet reservoir for the epithelial channel, flowed the testosterone-containing media through the chip at a rate of 30 μl/h, and collected samples from the effluent chambers from both the epithelial and vasculature channels.

Structure (SMILES) | pro-drug hydrolysis to desisobutyryl-Ciclesonide (kinetics in words) [1] | pro-drug hydrolysis to desisobutyryl-Ciclesonide (kinetics in words) [2] | channel in which testosterone metabolites were detected [3] | time by which CYP3A89-mediated conversion of testosterone to 6-hydroxytestosterone was revealed ([3]; equine intestine-chip, flow 30 μl/h, effluent samples, post-treatment) [h] | time of peak testosterone metabolism ([3]; horse)
CC(C)C(=O)OCC(=O)[C@@]12O[C@H](C3CCCCC3)O[C@@H]1C[C@H]1[C@@H]3CCC4=CC(=O)C=C[C@]4(C)[C@H]3[C@@H](O)C[C@@]12C [Ciclesonide] | rapid and linear | rapid and linear | – | – | –
C[C@]12CC[C@H]3[C@@H](CCC4=CC(=O)CC[C@@]43C)[C@@H]1CC[C@@H]2O [testosterone] | – | – | detected only in the epithelial channel effluent | ≤ 1 | roughly 3 h
